From PubChem BioAssay AID2060494 (Molecular Pharmacology Branch, DTP, NCI, 2025)
pIC50: −log10 of the molar value.

Test system: 435261-313-R-J1-PDC complex spheroid viability
Assay: Anticancer human tumor 435261-313-R-J1-PDC patient-derived colon adenocarcinoma cell line growth inhibition [GQUAD]
Conditions: for pIC50: curve of first compound; for viability, T/C: stronger effect = lower value
Excerpt: DNA G-quadruplex Stabilizer Agents in Combinations in Complex Spheroids
A high-throughput screen of multi-cell type tumor spheroids was designed to identify active combinations of DNA G-quadruplex stabilizer agents and targeted small molecules. Complex spheroids include a stromal component modeled by human endothelial cells (HUVEC) and fibroblasts modeled by human mesenchymal stem cells (MSCs). The concentration ranges selected for each drug and investigational agent were based upon clinically achievable concentrations if the clinical Cmax of the agent was known.
Compounds. The drugs and investigational agents: pidnarulex (CX-5461; NSC782164), APTO-253 (NSC789042), BRACO-19 (NSC847499), peposertib (NSC802822), ceralasertib (NSC780249), elimusertib (NSC800525), camonsertib (NSC841442), AZD-1390 (NSC803789), olaparib (NSC753686), talazoparib (NSC767125), ART-558 (NSC835418), sotorasib (NSC818433), MRTX-1133 (NSC836407), SN-38 (NSC673596), topotecan (NSC609699), etoposide (NSC141540), doxorubicin (NSC123127), gemcitabine (NSC613327), 5-fluorouracil (NSC19893), paclitaxel (NSC125973), vemurafenib (NSC761431), panobinostat (NSC761190), R-306465 (JNJ-16241199; NSC773264), adavosertib (NSC754352), TP-3654 (NSC805149), carboplatin (NSC241240), KSQ-4279 (NSC840948), and staurosporine (NSC755774) were obtained from the National Cancer Institute (NCI) Developmental Therapeutics Program Chemical Repository (34). The FDA-approved anticancer drug set is available from the NCI Developmental Therapeutics Program. […] The stock solutions were prepared in dimethyl sulfoxide (DMSO, Sigma-Aldrich, St. Louis, MO, cat. D2650) at 800-fold the tested concentration and stored at -70 degrees C prior to their use. All drugs and investigational agents were tested over a range starting from a high concentration at or near the clinical Cmax and decreasing in half-log increments. If the clinical Cmax for an agent had not been determined, the highest concentration tested was 10 microM.
2.3 Cell Culture. All cells were maintained in an incubator at 37 degrees C and 5% CO2 with 95% humidity. The PDC lines were cultured according to standard operating procedures established by the NCI PDMR. All PDCs were thawed and cultured in Matrigel-coated flasks prepared with a working solution of 1X Ham's F-12 nutrient mix, without supplementation (Invitrogen, cat. 11765054), 100 U/mL penicillin-streptomycin (Invitrogen, cat. 15140122), and 2.5% Matrigel (Corning Inc., cat. 354248) for the first three passages. The 857933-349-R-J2-PDC line was cultured in 6C/Colon 1B media, which includes advanced DMEM/F-12 (Thermo Fisher Scientific, cat. 12634028), 10 mM HEPES (Thermo Fisher Scientific, cat. 15630080), 1X GlutaMAX supplement (Thermo Fisher Scientific, cat. 35050061), 0.1 mg/mL primocin (InvivoGen, cat. ant-pm-2), 10% defined fetal bovine serum, heat inactivated (HyClone Laboratories Inc., cat. SH30070.03HI), 50% L-WRN conditioned media (ATCC, cat. CRL-3276), 1.25 mM N-Acetyl-L-cysteine (Sigma-Aldrich, cat. A9165), 10 mM nicotinamide (Sigma-Aldrich, cat. N0636), 1X B-27 supplement (Thermo Fisher Scientific, cat. 17504044), 1X N-2 supplement (Thermo Fisher Scientific, cat. 17502048), 10 microM Y-27632 dihydrochloride (Tocris Bioscience, cat. 1254), and 50 ng/mL human EGF recombinant protein (Thermo Fisher Scientific, cat. PHG0311). The 485176-168-R4-J1-PDC line was cultured in Panc media, which includes all 6C/Colon 1B media components plus 100 ng/mL human FGF-10 (Thermo Fisher Scientific, cat. 100-26), 500 nM SB-431542 (Selleckchem, cat. S1067), and gastrin (Tocris, cat. 3006).
[…]

[1] = second compound 0.0316 µM, first compound 0.0316 µM
[2] = second compound 0.0316 µM, first compound 0.316 µM
[3] = second compound 0.1 µM, first compound 0.0316 µM
[4] = second compound 0.1 µM, first compound 0.316 µM
[5] = second compound 0.316 µM, first compound 0.0316 µM
[6] = second compound 0.316 µM, first compound 0.316 µM
[7] = second compound 1 µM, first compound 0.0316 µM
[8] = second compound 1 µM, first compound 0.316 µM
[9] = second compound 3.16 µM, first compound 0.0316 µM
[10] = second compound 3.16 µM, first compound 0.316 µM
[11] = second compound 10 µM, first compound 0.0316 µM
[12] = second compound 10 µM, first compound 0.316 µM
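Also: spheroids exposed to the agents for seven days before readout.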
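For viability, T/C in this document: percent of vehicle control viability with DMSO wells as 100%.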

For `CCCS(=O)(=O)Nc1ccc(F)c(C(=O)c2c[nH]c3ncc(-c4ccc(Cl)cc4)cc23)c1F` + CN(C)c1ccc(Nc2c3ccc(NC(=O)CCN4CCCC4)cc3nc3cc(NC(=O)CCN4CCCC4)ccc23)cc1, the pIC50 (second compound 0.0316 µM) was 5.24, the pIC50 (second compound 0.1 µM) was 5.25 and the pIC50 (second compound 0.316 µM) was 5.27. For the same compound, the pIC50 (second compound 1 µM) was 5.25, the pIC50 (second compound 3.16 µM) was 5.42 and the pIC50 (second compound 10 µM) was > 7.50. It also gave a viability, T/C [1] of 123%, a viability, T/C (second compound 0.0316 µM, first compound 0.1 µM) of 110% and a viability, T/C [2] of 143%. It also gave a viability, T/C (second compound 0.0316 µM, first compound 1 µM) of 123%, a viability, T/C (second compound 0.0316 µM, first compound 3.16 µM) of 85.6% and a viability, T/C (second compound 0.0316 µM, first compound 10 µM) of 15.8%. For the same compound, the viability, T/C [3] was 84.3%, the viability, T/C (second compound 0.1 µM, first compound 0.1 µM) was 110% and the viability, T/C [4] was 120%. It also gave a viability, T/C (second compound 0.1 µM, first compound 1 µM) of 92.3%, a viability, T/C (second compound 0.1 µM, first compound 3.16 µM) of 81.6% and a viability, T/C (second compound 0.1 µM, first compound 10 µM) of 19.6%. The viability, T/C [5] was 124%, the viability, T/C (second compound 0.316 µM, first compound 0.1 µM) was 94.6% and the viability, T/C [6] was 92.1%. It also gave a viability, T/C (second compound 0.316 µM, first compound 1 µM) of 128%, a viability, T/C (second compound 0.316 µM, first compound 3.16 µM) of 76.1% and a viability, T/C (second compound 0.316 µM, first compound 10 µM) of 19.1%. The viability, T/C [7] was 77.3%, the viability, T/C (second compound 1 µM, first compound 0.1 µM) was 90.7% and the viability, T/C [8] was 105%. The viability, T/C (second compound 1 µM, first compound 1 µM) was 92.5%, the viability, T/C (second compound 1 µM, first compound 3.16 µM) was 77.7% and the viability, T/C (second compound 1 µM, first compound 10 µM) was 22.1%. The viability, T/C [9] was 82%, the viability, T/C (second compound 3.16 µM, first compound 0.1 µM) was 53.6% and the viability, T/C [10] was 74.7%. The viability, T/C (second compound 3.16 µM, first compound 1 µM) was 112%, the viability, T/C (second compound 3.16 µM, first compound 3.16 µM) was 57.1% and the viability, T/C (second compound 3.16 µM, first compound 10 µM) was 10.5%. It also gave a viability, T/C [11] of 45.5%, a viability, T/C (second compound 10 µM, first compound 0.1 µM) of 54.3% and a viability, T/C [12] of 33.9%. The viability, T/C (second compound 10 µM, first compound 1 µM) was 34%, the viability, T/C (second compound 10 µM, first compound 3.16 µM) was 33.8% and the viability, T/C (second compound 10 µM, first compound 10 µM) was 7.35%.

In the case of `Cc1[nH]c2ccccc2c1CCNCc1ccc(/C=C/C(=O)NO)cc1` + CN(C)c1ccc(Nc2c3ccc(NC(=O)CCN4CCCC4)cc3nc3cc(NC(=O)CCN4CCCC4)ccc23)cc1, the pIC50 (second compound 0.0316 µM) was 7.10, the pIC50 (second compound 0.1 µM) was 7.25 and the pIC50 (second compound 0.316 µM) was 7.13. The pIC50 (second compound 1 µM) was 7.21, the pIC50 (second compound 3.16 µM) was 7.59 and the pIC50 (second compound 10 µM) was > 9.00. For the same compound, the viability, T/C (second compound 0.0316 µM, first compound 0.000999 µM) was 84.5%, the viability, T/C (second compound 0.0316 µM, first compound 0.00316 µM) was 86% and the viability, T/C (second compound 0.0316 µM, first compound 0.00999 µM) was 95%. The viability, T/C [1] was 69.2%, the viability, T/C (second compound 0.0316 µM, first compound 0.0999 µM) was 45.9% and the viability, T/C [2] was 9.48%. The viability, T/C (second compound 0.1 µM, first compound 0.000999 µM) was 134%, the viability, T/C (second compound 0.1 µM, first compound 0.00316 µM) was 96.6% and the viability, T/C (second compound 0.1 µM, first compound 0.00999 µM) was 79.4%. It also gave a viability, T/C [3] of 59.7%, a viability, T/C (second compound 0.1 µM, first compound 0.0999 µM) of 50.8% and a viability, T/C [4] of 11%. It also gave a viability, T/C (second compound 0.316 µM, first compound 0.000999 µM) of 104%, a viability, T/C (second compound 0.316 µM, first compound 0.00316 µM) of 99.5% and a viability, T/C (second compound 0.316 µM, first compound 0.00999 µM) of 91.4%. For the same compound, the viability, T/C [5] was 69.4%, the viability, T/C (second compound 0.316 µM, first compound 0.0999 µM) was 43.8% and the viability, T/C [6] was 9.1%. It also gave a viability, T/C (second compound 1 µM, first compound 0.000999 µM) of 76.7%, a viability, T/C (second compound 1 µM, first compound 0.00316 µM) of 74.3% and a viability, T/C (second compound 1 µM, first compound 0.00999 µM) of 58.5%. For the same compound, the viability, T/C [7] was 62.1%, the viability, T/C (second compound 1 µM, first compound 0.0999 µM) was 45.5% and the viability, T/C [8] was 10.1%. It also gave a viability, T/C (second compound 3.16 µM, first compound 0.000999 µM) of 119%, a viability, T/C (second compound 3.16 µM, first compound 0.00316 µM) of 79.2% and a viability, T/C (second compound 3.16 µM, first compound 0.00999 µM) of 62.7%. For the same compound, the viability, T/C [9] was 56.2%, the viability, T/C (second compound 3.16 µM, first compound 0.0999 µM) was 28.5% and the viability, T/C [10] was 6.97%. For the same compound, the viability, T/C (second compound 10 µM, first compound 0.000999 µM) was 44.3%, the viability, T/C (second compound 10 µM, first compound 0.00316 µM) was 49.4% and the viability, T/C (second compound 10 µM, first compound 0.00999 µM) was 23.3%. The viability, T/C [11] was 18.3%, the viability, T/C (second compound 10 µM, first compound 0.0999 µM) was 22.6% and the viability, T/C [12] was 4.75%.
